# According to PubChem BioAssay (NCI):
#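 Here, GI50 denotes the concentration required for 50% inhibition of growth. TGI: concentration producing complete growth inhibition.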
# Tests used:
# Assay in all cases: DTP human tumour cell line panel, 384-well format
# MDA-MB-468 breast = system: MDA-MB-468 breast
# SR leukemia = system: SR leukemia
# A498 renal = system: A498 renal
# TK-10 renal = system: TK-10 renal
# COLO 205 colon = system: COLO 205 colon
# SF-268 CNS = system: SF-268 CNS
# MALME-3M melanoma = system: MALME-3M melanoma
# PC-3 prostate = system: PC-3 prostate
# DU-145 prostate = system: DU-145 prostate
# SK-OV-3 ovarian = system: SK-OV-3 ovarian
# HT29 colon = system: HT29 colon
# HCT-116 colon = system: HCT-116 colon
# U251 glioblastoma = system: U251 glioblastoma
# SK-MEL-2 melanoma = system: SK-MEL-2 melanoma
# HOP-62 NSCLC = system: HOP-62 NSCLC
# NCI-H460 NSCLC = system: NCI-H460 NSCLC
# KM12 colon = system: KM12 colon
# HCT-15 colon = system: HCT-15 colon
# UO-31 renal = system: UO-31 renal
# EKVX NSCLC = system: EKVX NSCLC
# SK-MEL-5 melanoma = system: SK-MEL-5 melanoma
# MOLT-4 leukemia = system: MOLT-4 leukemia
# OVCAR-4 ovarian = system: OVCAR-4 ovarian
# NCI-H226 lung = system: NCI-H226 lung
# UACC-257 melanoma = system: UACC-257 melanoma
# 786-0 renal = system: 786-0 renal
# HL-60(TB) leukemia = system: HL-60(TB) leukemia
# NCI/ADR-RES ovarian = system: NCI/ADR-RES ovarian
# SW-620 colon = system: SW-620 colon
# HS 578T breast = system: HS 578T breast
# NCI-H23 lung = system: NCI-H23 lung
# OVCAR-5 ovarian = system: OVCAR-5 ovarian
# NCI-H522 lung = system: NCI-H522 lung
# CCRF-CEM leukemia = system: CCRF-CEM leukemia
# UACC-62 melanoma = system: UACC-62 melanoma
# SF-539 CNS = system: SF-539 CNS
# HOP-92 NSCLC = system: HOP-92 NSCLC
# HCC-2998 colon = system: HCC-2998 colon
# RXF 393 renal = system: RXF 393 renal
# MDA-MB-435 melanoma = system: MDA-MB-435 melanoma
# T-47D breast = system: T-47D breast
# SN12C renal = system: SN12C renal
# IGROV1 ovarian = system: IGROV1 ovarian
# RPMI-8226 leukemia = system: RPMI-8226 leukemia
# SF-295 CNS = system: SF-295 CNS
# ACHN renal = system: ACHN renal
# SNB-19 CNS = system: SNB-19 CNS
structure (smiles),measurement,setting,value
COCCNc1cc(NC(=O)N2CCCc3cc(CN4CCN(C)CC4=O)c(C=O)nc32)ncc1C#N,GI50,MDA-MB-468 breast,4830 nM
same,TGI,MDA-MB-468 breast,> 100000 nM
same,GI50,SR leukemia,3310 nM
same,TGI,SR leukemia,10800 nM
same,GI50,A498 renal,> 100000 nM
same,TGI,A498 renal,> 100000 nM
same,GI50,TK-10 renal,> 84900 nM
same,TGI,TK-10 renal,> 100000 nM
same,GI50,COLO 205 colon,> 100000 nM
same,TGI,COLO 205 colon,> 100000 nM
same,GI50,SF-268 CNS,> 100000 nM
same,TGI,SF-268 CNS,> 100000 nM
same,GI50,MALME-3M melanoma,> 100000 nM
same,TGI,MALME-3M melanoma,> 100000 nM
same,GI50,PC-3 prostate,> 100000 nM
same,TGI,PC-3 prostate,> 100000 nM
same,GI50,DU-145 prostate,> 100000 nM
same,TGI,DU-145 prostate,> 100000 nM
same,GI50,SK-OV-3 ovarian,> 100000 nM
same,TGI,SK-OV-3 ovarian,> 100000 nM
same,GI50,HT29 colon,> 100000 nM
same,TGI,HT29 colon,> 100000 nM
same,GI50,HCT-116 colon,> 100000 nM
same,TGI,HCT-116 colon,> 100000 nM
same,GI50,U251 glioblastoma,> 100000 nM
same,TGI,U251 glioblastoma,> 100000 nM
same,GI50,SK-MEL-2 melanoma,> 100000 nM
same,TGI,SK-MEL-2 melanoma,> 100000 nM
same,GI50,HOP-62 NSCLC,> 100000 nM
same,TGI,HOP-62 NSCLC,> 100000 nM
same,GI50,NCI-H460 NSCLC,> 100000 nM
same,TGI,NCI-H460 NSCLC,> 100000 nM
same,GI50,KM12 colon,> 100000 nM
same,TGI,KM12 colon,> 100000 nM
same,GI50,HCT-15 colon,> 100000 nM
same,TGI,HCT-15 colon,> 100000 nM
same,GI50,UO-31 renal,> 100000 nM
same,TGI,UO-31 renal,> 100000 nM
same,GI50,EKVX NSCLC,> 100000 nM
same,TGI,EKVX NSCLC,> 100000 nM
same,GI50,SK-MEL-5 melanoma,> 100000 nM
same,TGI,SK-MEL-5 melanoma,> 100000 nM
same,GI50,MOLT-4 leukemia,6800 nM
same,TGI,MOLT-4 leukemia,> 100000 nM
same,GI50,OVCAR-4 ovarian,> 100000 nM
same,TGI,OVCAR-4 ovarian,> 100000 nM
same,GI50,NCI-H226 lung,> 100000 nM
same,TGI,NCI-H226 lung,> 100000 nM
same,GI50,UACC-257 melanoma,> 100000 nM
same,TGI,UACC-257 melanoma,> 100000 nM
same,GI50,786-0 renal,> 100000 nM
same,TGI,786-0 renal,> 100000 nM
same,GI50,HL-60(TB) leukemia,99600 nM
same,TGI,HL-60(TB) leukemia,> 100000 nM
same,GI50,NCI/ADR-RES ovarian,> 100000 nM
same,TGI,NCI/ADR-RES ovarian,> 100000 nM
same,GI50,SW-620 colon,> 100000 nM
same,TGI,SW-620 colon,> 100000 nM
same,GI50,HS 578T breast,> 100000 nM
same,TGI,HS 578T breast,> 100000 nM
same,GI50,NCI-H23 lung,> 100000 nM
same,TGI,NCI-H23 lung,> 100000 nM
same,GI50,OVCAR-5 ovarian,> 100000 nM
same,TGI,OVCAR-5 ovarian,> 100000 nM
same,GI50,NCI-H522 lung,> 42200 nM
same,TGI,NCI-H522 lung,> 100000 nM
same,GI50,CCRF-CEM leukemia,27000 nM
same,TGI,CCRF-CEM leukemia,> 100000 nM
same,GI50,UACC-62 melanoma,> 100000 nM
same,TGI,UACC-62 melanoma,> 100000 nM
same,GI50,SF-539 CNS,> 100000 nM
same,TGI,SF-539 CNS,> 100000 nM
same,TGI,HOP-92 NSCLC,> 100000 nM
same,GI50,HCC-2998 colon,> 100000 nM
same,TGI,HCC-2998 colon,> 100000 nM
same,GI50,RXF 393 renal,> 100000 nM
same,TGI,RXF 393 renal,> 100000 nM
same,GI50,MDA-MB-435 melanoma,> 100000 nM
same,TGI,MDA-MB-435 melanoma,> 100000 nM
same,GI50,T-47D breast,> 77700 nM
same,TGI,T-47D breast,> 100000 nM
same,GI50,SN12C renal,> 100000 nM
same,TGI,SN12C renal,> 100000 nM
same,GI50,IGROV1 ovarian,> 100000 nM
same,TGI,IGROV1 ovarian,> 100000 nM
same,GI50,RPMI-8226 leukemia,> 21100 nM
same,TGI,RPMI-8226 leukemia,> 43900 nM
same,GI50,SF-295 CNS,> 100000 nM
same,TGI,SF-295 CNS,> 100000 nM
same,GI50,ACHN renal,> 100000 nM
same,TGI,ACHN renal,> 100000 nM
same,GI50,SNB-19 CNS,> 100000 nM
same,TGI,SNB-19 CNS,> 100000 nM
Cc1[nH]c2ccccc2c1CCNCc1ccc(/C=C/C(=O)NO)cc1,GI50,MDA-MB-468 breast,< 10 nM
same,TGI,MDA-MB-468 breast,17.9 nM
same,GI50,SR leukemia,< 10 nM
same,TGI,SR leukemia,< 10 nM
same,GI50,A498 renal,16.6 nM
same,TGI,A498 renal,36 nM
same,GI50,TK-10 renal,17.3 nM
same,TGI,TK-10 renal,55.2 nM
same,GI50,COLO 205 colon,12.3 nM
same,TGI,COLO 205 colon,22.7 nM
same,GI50,SF-268 CNS,15.2 nM
same,TGI,SF-268 CNS,39.1 nM
same,GI50,MALME-3M melanoma,< 10 nM
same,TGI,MALME-3M melanoma,16.3 nM
same,GI50,PC-3 prostate,14.2 nM
same,TGI,PC-3 prostate,39.9 nM
same,GI50,DU-145 prostate,< 10 nM
same,TGI,DU-145 prostate,17.9 nM
same,GI50,SK-OV-3 ovarian,15.4 nM
same,TGI,SK-OV-3 ovarian,33.3 nM
same,GI50,HT29 colon,12.5 nM
same,TGI,HT29 colon,28.5 nM
same,GI50,HCT-116 colon,< 10 nM
same,TGI,HCT-116 colon,17.9 nM
same,GI50,U251 glioblastoma,12.2 nM
same,TGI,U251 glioblastoma,26.8 nM
same,GI50,SK-MEL-2 melanoma,< 10 nM
same,TGI,SK-MEL-2 melanoma,< 10 nM
same,GI50,HOP-62 NSCLC,13.1 nM
same,TGI,HOP-62 NSCLC,64.4 nM
same,GI50,NCI-H460 NSCLC,12.5 nM
same,TGI,NCI-H460 NSCLC,51.1 nM
same,GI50,KM12 colon,23.1 nM
same,TGI,KM12 colon,94.8 nM
same,GI50,HCT-15 colon,51.5 nM
same,TGI,HCT-15 colon,257 nM
same,GI50,UO-31 renal,31.8 nM
same,TGI,UO-31 renal,128 nM
same,GI50,EKVX NSCLC,42.7 nM
same,TGI,EKVX NSCLC,398 nM
same,GI50,SK-MEL-5 melanoma,< 10 nM
same,TGI,SK-MEL-5 melanoma,14 nM
same,GI50,MOLT-4 leukemia,< 10 nM
same,TGI,MOLT-4 leukemia,< 10 nM
same,GI50,OVCAR-4 ovarian,27.5 nM
same,TGI,OVCAR-4 ovarian,60.9 nM
same,GI50,NCI-H226 lung,35.9 nM
same,TGI,NCI-H226 lung,133 nM
same,GI50,UACC-257 melanoma,< 10.7 nM
same,TGI,UACC-257 melanoma,24.4 nM
same,GI50,786-0 renal,21.4 nM
same,TGI,786-0 renal,114 nM
same,GI50,HL-60(TB) leukemia,< 10 nM
same,TGI,HL-60(TB) leukemia,< 10 nM
same,GI50,NCI/ADR-RES ovarian,39 nM
same,TGI,NCI/ADR-RES ovarian,181 nM
same,GI50,SW-620 colon,12.3 nM
same,TGI,SW-620 colon,25.5 nM
same,GI50,HS 578T breast,11.5 nM
same,TGI,HS 578T breast,24.3 nM
same,GI50,NCI-H23 lung,13.9 nM
same,TGI,NCI-H23 lung,41.1 nM
same,GI50,OVCAR-5 ovarian,10.1 nM
same,TGI,OVCAR-5 ovarian,33.7 nM
same,GI50,NCI-H522 lung,< 10 nM
same,TGI,NCI-H522 lung,18.5 nM
same,GI50,CCRF-CEM leukemia,< 10 nM
same,TGI,CCRF-CEM leukemia,< 10 nM
same,GI50,UACC-62 melanoma,< 10 nM
same,TGI,UACC-62 melanoma,16.1 nM
same,GI50,SF-539 CNS,18.6 nM
same,TGI,SF-539 CNS,86 nM
same,GI50,HOP-92 NSCLC,13.3 nM
same,TGI,HOP-92 NSCLC,32.5 nM
same,GI50,HCC-2998 colon,15.1 nM
same,TGI,HCC-2998 colon,33.7 nM
same,GI50,RXF 393 renal,< 11.7 nM
same,TGI,RXF 393 renal,18.6 nM
same,GI50,MDA-MB-435 melanoma,18.1 nM
same,TGI,MDA-MB-435 melanoma,43.4 nM
same,GI50,T-47D breast,< 10.9 nM
same,TGI,T-47D breast,21.4 nM
same,GI50,SN12C renal,18.6 nM
same,TGI,SN12C renal,41.1 nM
same,GI50,IGROV1 ovarian,10.8 nM
same,TGI,IGROV1 ovarian,26.4 nM
same,GI50,RPMI-8226 leukemia,< 10 nM
same,TGI,RPMI-8226 leukemia,< 10 nM
same,GI50,SF-295 CNS,18.5 nM
same,TGI,SF-295 CNS,41.3 nM
same,GI50,ACHN renal,20.3 nM
same,TGI,ACHN renal,53.8 nM
same,GI50,SNB-19 CNS,23.4 nM
same,TGI,SNB-19 CNS,65.3 nM
